# What was measured:
# Assay type in all cases: cell-based
# [1] = target: T1, CB1 receptor (Mus musculus, UniProt P47746); test: PathHunter β-arrestin CHO-K1 antagonist assay vs CP55940
# T1 construct: gene Cnr1
# [2] = target: T2, cannabinoid receptor type 1 (CB1) (Homo sapiens, UniProt P21554); test: cAMP Hunter CHO-K1 CNR1 Gi agonist assay (inhibition of forskolin-stimulated cAMP)
# T2 construct: gene CNR1
# [3] = target: T1, CB1 receptor; test: PathHunter β-arrestin CHO-K1 agonist assay (EC80)
# [4] = target: T2, cannabinoid receptor type 1 (CB1); test: cAMP Hunter CHO-K1 CNR1 Gi antagonist assay vs […] CP55940
# T1 sequence (P47746 whole entry): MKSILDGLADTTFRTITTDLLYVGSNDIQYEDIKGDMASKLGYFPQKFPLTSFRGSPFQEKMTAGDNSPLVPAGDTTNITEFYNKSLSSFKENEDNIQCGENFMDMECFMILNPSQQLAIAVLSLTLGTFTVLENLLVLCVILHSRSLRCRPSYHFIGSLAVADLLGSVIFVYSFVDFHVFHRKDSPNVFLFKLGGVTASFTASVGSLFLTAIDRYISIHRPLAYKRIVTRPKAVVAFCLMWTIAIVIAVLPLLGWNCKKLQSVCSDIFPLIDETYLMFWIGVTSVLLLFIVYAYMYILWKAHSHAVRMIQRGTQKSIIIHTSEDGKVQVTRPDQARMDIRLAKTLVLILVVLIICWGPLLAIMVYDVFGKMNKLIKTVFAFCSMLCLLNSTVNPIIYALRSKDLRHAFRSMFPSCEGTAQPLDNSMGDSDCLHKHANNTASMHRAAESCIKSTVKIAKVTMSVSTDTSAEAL
# T2 sequence (P21554 whole entry): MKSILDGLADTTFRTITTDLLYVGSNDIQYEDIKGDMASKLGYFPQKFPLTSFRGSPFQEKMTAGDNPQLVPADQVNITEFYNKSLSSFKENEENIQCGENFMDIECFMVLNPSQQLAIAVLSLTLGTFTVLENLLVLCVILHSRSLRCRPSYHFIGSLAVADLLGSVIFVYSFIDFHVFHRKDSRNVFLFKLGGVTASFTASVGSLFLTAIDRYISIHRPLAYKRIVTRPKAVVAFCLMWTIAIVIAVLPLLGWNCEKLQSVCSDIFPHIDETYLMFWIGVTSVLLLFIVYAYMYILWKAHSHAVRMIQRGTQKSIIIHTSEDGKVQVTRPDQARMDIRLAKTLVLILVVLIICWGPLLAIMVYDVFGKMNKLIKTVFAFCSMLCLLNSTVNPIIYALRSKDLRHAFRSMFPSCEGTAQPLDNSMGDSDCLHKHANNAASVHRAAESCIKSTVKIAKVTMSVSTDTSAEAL
smiles,measurement,setting,value
Cc1c(C(=O)NN2CCOCC2)nn(-c2ccc(Cl)cc2Cl)c1-c1ccc(I)cc1 [AM281],IC50,[1],40 nM
C=C(C)[C@@H]1CC[C@](C)(O)[C@H]2Oc3cc(CCCCC)cc(O)c3[C@@H]12 [S-CBE],EC50,[2],3720 nM
CCCCCCC(C)(C)c1ccc([C@@H]2C[C@H](O)CC[C@H]2CCCO)c(O)c1 (racemic) [CP55940],EC80,[3],11.5 nM
Cc1c(C(=O)NN2CCCCC2)nn(-c2ccc(Cl)cc2Cl)c1-c1ccc(I)cc1 [AM251],cAMP Hunter CHO-K1 CNR1 Gi antagonist assay vs 1.2 nM CP55940,[4],"the antagonist/inverse agonist of CB1, AM251, completely diminished the agonist signal of CP55940"

# — paper PMC11275175, “Cannabielsoin (CBE), a CBD Oxidation Product, Is a Biased CB1 Agonist” (Biomedicines, 2024)
